Measurements published in EP4772634A1, “DOUBLE-STRANDED RNA TARGETING COAGULATION FACTOR XI” (Chia Tai Tianqing Pharmaceutical Group Co., Ltd., priority 2023, dated 2025).

Tested on: coagulation factor XI
Experiment: In vivo activity in cynomolgus monkeys, plasma FXI activity
Conditions: cynomolgus monkey plasma, subcutaneous once, 4.2 mg/kg (first row, dose by order of Table 17)
Method: On day 7 before administration, female cynomolgus monkeys weighing 2-4 kg were fasted overnight, and about 1 mL of blood was collected from the femoral vein. Plasma was collected by centrifugation. FXI protein (Human Coagulation Factor XI ELISAkit, Thermo, Cat. No. EH118RB), FXI activity (coagulation factor XI assay kit, Stago, Cat. No. 00723), and APTT (activated partial thromboplastin time assay kit, Stago, Cat. No. 00595) were measured. The monkeys were evenly divided into groups based on these indicators. On day 0, the dsRNA ligand conjugates of the present application (TD02M02L01, etc.) were injected. On day 0, day 3, day 7, day 14, day 21, day 28, day 37, day 54, and day 68, plasma was collected to measure plasma FXI protein, FXI activity, and activated partial thromboplastin time (APTT).
The coagulation factor XI activity inhibition rate was calculated according to the following equation: [formula]
The content of the coagulation factor XI protein, the FXI activity, and the activated partial thromboplastin time in animal plasma were measured before and on day 0, day 3, day 7, day 14, day 21, day 28, day 37, day 54, and day 68 after the subcutaneous administration of the dsRNA ligand conjugates of the present application at doses of 4.2 mg/kg and 14 mg/kg to cynomolgus monkeys (Table 17). […] Table 17. In vivo experimental design

TD02M02L01: dsRNA ligand conjugate: TD02M02 with L01 (GalNAc) ligand at 3' end of sense strand SEQ ID NO 35; antisense SEQ ID NO 36 (sense GGATGATTTTCTTATATCA; antisense TGATATAAGAAAATCATCCTG; GalNAc L01 ligand at sense 3' end, 2'-OMe/2'-F, pattern not given here)
Relative inhibition rate (%) of FXI activity (D3): 20.5%
Relative inhibition rate (%) of FXI activity (D7): 66.0%
Relative inhibition rate (%) of FXI activity (D14): 84.7%
Relative inhibition rate (%) of FXI activity (D21): 88.9%
Relative inhibition rate (%) of FXI activity (D28): 89.2%
Relative inhibition rate (%) of FXI activity (D37): 92.6%
Relative inhibition rate (%) of FXI activity (D54): 91.4%
